# From patent publication US20090156625A1, “Novel Use of a Nicotinic Receptor Agonist 156” (AstraZeneca AB, priority 2007, published 2009)
# Read-outs that look alike come from different tables or passages of the source.
# Key:
# [1] = test system: S-GAG (aggrecanase activity); test: Histamine induced acute articular inflammation in mouse: S-GAG analysis (DMMB assay) of cartilage extract; assay type: in vivo; details: C57B16 mice, oral
# Method: (§1) At 1-hour post oral treatment with either vehicle hydroxypropyl methylcellulose (HPMC) or E1, C57B16 mice were anaesthetized under isofluorane by inhalation. An H1 specific receptor antagonist desloratadine (5 mg/kg) was used as a positive control. The left hind knee was shaved, dampened with 70% ethanol and injected intra articularly into the knee joint (6 μl volume) with either saline or histamine (5 μM) using a glass Hamilton syringe and 30-gauge needle. Mice were allowed to recover in their home cage and kept on study for 48 hours post injection and dosed with compound.
# (§2) After synovial lavage, the joint was disarticulated and cartilage was removed with a scalpel from the tibial plateau & femoral condyle, taking care to minimise the amounts of bone. Cartilage samples were weighed and snap frozen. The cartilage from individual animals was extracted in 200 μl high salt buffer (HSB) overnight at 4° C. with gentle agitation.
# (§3) Samples were centrifuged at 10000 rpm for 10 min and the HSB cartilage extract decanted and stored at −80° C. prior to analysis.
# HSB cartilage extracts were digested with hyaluronidase (110 units/ml) 37° C. for 3 hrs followed by papain digestion at 60° C. overnight. Digested samples were then centrifuged at 12000 g for 15 minutes. […] The plate was read immediately at 532 nm and 620 nm wavelengths and data calculated as O.D 532 nm/O.D 620 nm minus background. […]
# [2] = rat, in vivo
# Description: (§4) This Fabs parameter was then adjusted to bioavailability (F) by correction for hepatic extraction. […] The clinical dosing frequency desired was assumed to be once daily.
# [3] = in vivo; details: rat
# Description: as §4
# [4] = In vivo PK in dog (Vss, Fabs)
# Description: as §4
# [5] = Mouse PK in low dose pharmacodynamic study (micro-sampling, LC-MS/MS); assay type: in vivo; details: mice, oral 0.1, 0.001 and 0.0001 mg/kg b.i.d. for 48 hrs, blood
# Method: Mice were weighed and orally dosed according to weight at a dose volume of 10 ml/kg (dosed at 0.1 mg/kg, 0.001 mg/kg and 0.0001 mg/kg b.i.d. for 48 hrs). The PK and low dose pharmacodynamic studies were performed in the same group of animals.
# Individual mice were repeatedly sampled at various timepoints over the 48 hr duration of the study by taking small volumes of blood by micro-sampling technique. After heating and mild restrain behind a Perspex stand, the tip of the tail was pricked with a 24 gauge needle and whole blood collected into an EDTA 20 μl glass micro sampling tubes. The 20 μl blood sample was then mixed with 80 μls of distilled water and frozen until analysis.
# At study termination the mice were culled using CO2 gas. A blood volume of about 0.4 mL was obtained by cardiac puncture. A volume of whole blood was then mixed with distilled water to lyse the cells (ratio 1:1) and stored for analysis.
# [6] = in vivo; details: mouse
# Method: In order to gain confidence in predicting circulating levels, mouse PK at 1 mg/kg oral dosing was subsequently carried out.
# Blood concentrations are given in nM.
# [7] = Human dose prediction; details: used for human Vss estimate
# Description: Human dose prediction for clinical studies requires an estimate of human PK parameters important for defining the elimination T1/2 and the shape and magnitude of the plasma concentration vs time profile at a particular dose. These estimated parameters include Clearance, Volume of Distribution at Steady State (Vss), absorption rate constant (Ka), bioavailability (F) and dosing frequency. Human dose predictions also require some pharmacological evidence as to how exposure relates to efficacy (McGinnity, Collington, Austin & Riley, Current Drug Metabolism 2007 8 463-479).
# Having defined the shape and magnitude of the human plasma concentration vs time curve, the final step was to adjust the dose so that plasma concentrations are attained that are likely to achieve efficacy. […] It was impossible to quantify the compound at these dose levels; consequently plasma concentrations observed at a higher oral dose (about 1 mg/kg) were extrapolated down to that likely at efficacious doses, assuming linear kinetics between the two. Finally, in the absence of a real PK/PD relationship in the mouse, it was assumed that efficacy in humans would be related to plasma AUC. Consequently, the human dose was adjusted to give, in conjunction with the estimated human PK parameters defined above, a human AUC value similar to that observed in mouse at efficacious doses.
# [8] = in vivo; details: guinea pig
# Description: as §4
# [9] = test system: MMP13; test: Histamine induced acute articular inflammation in mouse: MMP13 fluorokine ELISA of cartilage extract; assay type: in vivo; details: for cartilage extract MMP13 levels: C57B16 mice, oral
# Method: as §1, §2, §3
# MMP13 fluorokine ELISA (96-Well Plate Format)
# HSB cartilage extracts were tested in duplicate at a 1:5 dilution. There were no deviations from the kit instructions (F13M00, R&D Systems) and the plate was read using an excitation wavelength of 320 nm and an emission wavelength of 405 nm.
smiles,measurement,setting,value
"CNCc1ccc(-c2cnc3c(c2)C[C@@]2(CN4CCC2CC4)O3)s1 [Example E1, N-methyl-1-{5-[(2R)-3′H-spiro[4-azabicyclo[2.2.2]octane-2,2′-furo[2,3-b]pyridin]-5′-yl]-2-thienyl}methanamine]",S-GAG cartilage levels,[1]; 1 mg/kg b.i.d. for 48 hrs,significantly reduced
same,S-GAG cartilage levels,[1]; 1 mg/kg single dose over 48 hr,significantly reduced
same,Fabs (fraction absorbed),[2],83%
same,Vd,[3],35.5 L/kg
same,Fabs (fraction absorbed),[4]; dog,70%
same,Vd,[4]; dog in vivo,27 L/kg
same,circulating levels,[5],could not be detected in many animals
same,concentration at 0 h,[6]; 0.001 mg/kg,0.0003 nM
same,concentration at 0.17 h,[6]; 0.001 mg/kg,0.0017 nM
same,concentration at 0.33 h,[6]; 0.001 mg/kg,0.0058 nM
same,concentration at 0.5 h,[6]; 0.001 mg/kg,0.0081 nM
same,concentration at 0.75 h,[6]; 0.001 mg/kg,0.0119 nM
same,concentration at 1 h,[6]; 0.001 mg/kg,0.0156 nM
same,concentration at 2 h,[6]; 0.001 mg/kg,0.0266 nM
same,concentration at 4 h,[6]; 0.001 mg/kg,0.0326 nM
same,concentration at 6 h,[6]; 0.001 mg/kg,0.0332 nM
same,concentration at 8 h,[6]; 0.001 mg/kg,0.0349 nM
same,concentration at 10 h,[6]; 0.001 mg/kg,0.0297 nM
same,concentration at 12 h,[6]; 0.001 mg/kg,0.0284 nM
same,concentration at 24 h,[6]; 0.001 mg/kg,0.0172 nM
same,concentration at 0 h,[6]; 0.01 mg/kg,0 nM
same,concentration at 0.17 h,[6]; 0.01 mg/kg,0.02 nM
same,concentration at 0.33 h,[6]; 0.01 mg/kg,0.06 nM
same,concentration at 0.5 h,[6]; 0.01 mg/kg,0.08 nM
same,concentration at 0.75 h,[6]; 0.01 mg/kg,0.12 nM
same,concentration at 1 h,[6]; 0.01 mg/kg,0.16 nM
same,concentration at 2 h,[6]; 0.01 mg/kg,0.27 nM
same,concentration at 4 h,[6]; 0.01 mg/kg,0.33 nM
same,concentration at 6 h,[6]; 0.01 mg/kg,0.33 nM
same,concentration at 8 h,[6]; 0.01 mg/kg,0.35 nM
same,concentration at 10 h,[6]; 0.01 mg/kg,0.3 nM
same,concentration at 12 h,[6]; 0.01 mg/kg,0.28 nM
same,concentration at 24 h,[6]; 0.01 mg/kg,0.17 nM
same,concentration at 0 h,[6]; 0.03 mg/kg,0.01 nM
same,concentration at 0.17 h,[6]; 0.03 mg/kg,0.05 nM
same,concentration at 0.33 h,[6]; 0.03 mg/kg,0.17 nM
same,concentration at 0.5 h,[6]; 0.03 mg/kg,0.24 nM
same,concentration at 0.75 h,[6]; 0.03 mg/kg,0.36 nM
same,concentration at 1 h,[6]; 0.03 mg/kg,0.47 nM
same,concentration at 2 h,[6]; 0.03 mg/kg,0.8 nM
same,concentration at 4 h,[6]; 0.03 mg/kg,0.98 nM
same,concentration at 6 h,[6]; 0.03 mg/kg,1 nM
same,concentration at 8 h,[6]; 0.03 mg/kg,1.05 nM
same,concentration at 10 h,[6]; 0.03 mg/kg,0.89 nM
same,concentration at 12 h,[6]; 0.03 mg/kg,0.85 nM
same,concentration at 24 h,[6]; 0.03 mg/kg,0.52 nM
same,concentration at 0 h,[6]; 0.1 mg/kg,0.03 nM
same,concentration at 0.17 h,[6]; 0.1 mg/kg,0.17 nM
same,concentration at 0.33 h,[6]; 0.1 mg/kg,0.58 nM
same,concentration at 0.5 h,[6]; 0.1 mg/kg,0.81 nM
same,concentration at 0.75 h,[6]; 0.1 mg/kg,1.19 nM
same,concentration at 1 h,[6]; 0.1 mg/kg,1.56 nM
same,concentration at 2 h,[6]; 0.1 mg/kg,2.66 nM
same,concentration at 4 h,[6]; 0.1 mg/kg,3.26 nM
same,concentration at 6 h,[6]; 0.1 mg/kg,3.32 nM
same,concentration at 8 h,[6]; 0.1 mg/kg,3.49 nM
same,concentration at 10 h,[6]; 0.1 mg/kg,2.97 nM
same,concentration at 12 h,[6]; 0.1 mg/kg,2.84 nM
same,concentration at 24 h,[6]; 0.1 mg/kg,1.72 nM
same,AUC,"[6]; po, 0.001 mg/kg",0.29 nM·h
same,Cmax,"[6]; po, 0.001 mg/kg",0.035 nM
same,AUC,"[6]; po, 0.01 mg/kg",2.94 nM·h
same,Cmax,"[6]; po, 0.01 mg/kg",0.349 nM
same,AUC,"[6]; po, 0.03 mg/kg",8.81 nM·h
same,Cmax,"[6]; po, 0.03 mg/kg",1.05 nM
same,AUC,"[6]; po, 0.1 mg/kg",29.4 nM·h
same,Cmax,"[6]; po, 0.1 mg/kg",3.49 nM
same,AUC,"[6]; po, 1 mg/kg",294 nM·h
same,Cmax,"[6]; po, 1 mg/kg",35 nM
same,concentration at 0 h,"[6]; po, 1 mg/kg",0.31 nM
same,concentration at 0.17 h,"[6]; po, 1 mg/kg",1.65 nM
same,concentration at 0.33 h,"[6]; po, 1 mg/kg",5.75 nM
same,concentration at 0.5 h,"[6]; po, 1 mg/kg",8.08 nM
same,concentration at 0.75 h,"[6]; po, 1 mg/kg",11.9 nM
same,concentration at 1 h,"[6]; po, 1 mg/kg",15.6 nM
same,concentration at 2 h,"[6]; po, 1 mg/kg",26.6 nM
same,concentration at 4 h,"[6]; po, 1 mg/kg",32.6 nM
same,concentration at 6 h,"[6]; po, 1 mg/kg",33.2 nM
same,concentration at 8 h,"[6]; po, 1 mg/kg",34.9 nM
same,concentration at 10 h,"[6]; po, 1 mg/kg",29.7 nM
same,concentration at 12 h,"[6]; po, 1 mg/kg",28.4 nM
same,concentration at 24 h,"[6]; po, 1 mg/kg",17.2 nM
same,Vss derived by simple allometry across rat and dog,[7],5.7 L/kg
same,Vd,[8],10.2 L/kg
same,cartilage extract MMP13 levels,"[9]; 0.0001 mg/kg b.i.d. for 48 hrs (further study, FIG. 6)",decreased levels of MMP13
same,cartilage extract MMP13 levels,"[9]; 0.001 mg/kg b.i.d. for 48 hrs (further study, FIG. 6)",decreased levels of MMP13
same,cartilage extract MMP13 levels,"[9]; 0.1 mg/kg b.i.d. for 48 hrs (further study, FIG. 6)",decreased levels of MMP13
same,cartilage extract MMP13 levels,"[9]; 0.1 mg/kg b.i.d. for 48 hrs, tibial cartilage (first study, FIG. 4)",decreased levels of MMP13
same,cartilage extract MMP13 levels,"[9]; 1 mg/kg b.i.d. for 48 hrs, tibial cartilage",decreased levels of MMP13
same,cartilage extract MMP13 levels,"[9]; 1 mg/kg once over the 48 hr study period, tibial cartilage",decreased levels of MMP13
same,dose at which efficacy against MMP down-regulation and joint swelling was observed (as low as),[9]; mouse PD studies,0.1 µg/kg
